In ChEMBL document CHEMBL1133795, “Antagonists of the human CCR5 receptor as anti-HIV-1 agents. part 1: discovery and initial structure-activity relationships for 1 -amino-2-phenyl-4-(piperidin-1-yl)butanes” (Bioorg Med Chem Lett, 2001):
pIC50: −log10 of the molar value.

Legend:
Type in all cases: cell-based
[1] = target: T1, C-C chemokine receptor type 5 (Homo sapiens, UniProt P51681); assay: Binding affinity towards human CCR5 receptor in Chinese hamster ovary (CHO) cells using [125I]-MIP-1 alpha as radioligand
Target sequence in this assay (P51681 whole entry): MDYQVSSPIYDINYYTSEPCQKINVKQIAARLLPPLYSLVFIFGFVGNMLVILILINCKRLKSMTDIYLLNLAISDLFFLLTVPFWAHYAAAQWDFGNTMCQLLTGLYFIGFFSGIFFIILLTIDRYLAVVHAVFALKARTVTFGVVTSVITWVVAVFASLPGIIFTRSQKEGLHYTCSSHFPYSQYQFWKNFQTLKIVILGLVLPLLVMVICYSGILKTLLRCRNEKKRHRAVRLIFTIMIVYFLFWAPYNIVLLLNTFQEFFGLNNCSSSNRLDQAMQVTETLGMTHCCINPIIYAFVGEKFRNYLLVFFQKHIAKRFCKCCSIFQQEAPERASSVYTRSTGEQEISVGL

[2] = target: T1, C-C chemokine receptor type 5; assay: (§1) Binding affinity towards human CCR5 receptor in Chinese hamster ovary (CHO) cells using [125I]-MIP-1 alpha as radioligand at a concentration of 4000 nM
Target sequence in this assay (P51681 whole entry, looked up): as the sequence (P51681 whole entry) above

[3] = target: T1, C-C chemokine receptor type 5; assay: as §1; remark: listed apart in the source
Target sequence in this assay (P51681 whole entry): as above

[4] = target: T1, C-C chemokine receptor type 5; assay: Binding affinity towards human CCR5 receptor in Chinese hamster ovary (CHO) cells using [125I]-MIP-1 alpha as radioligand at a concentration of 10000 nM
Target sequence in this assay (P51681 whole entry, looked up): as the sequence (P51681 whole entry) above

[5] = target: T1, C-C chemokine receptor type 5; assay: Binding affinity towards human CCR5 receptor in Chinese hamster ovary (CHO) cells using [125I]-MIP-1 alpha as radioligand at a concentration of 1000 nM
Target sequence in this assay (P51681 whole entry, looked up): as the sequence (P51681 whole entry) above

Work on `CN(C[C@@H](CCN1CCC2(CC1)CS(=O)(=O)c1ccccc12)c1ccc(Cl)c(Cl)c1)S(=O)(=O)c1ccc([N+](=O)[O-])cc1` yielded a pIC50 [1] of 7.22.

Work on `CN(C[C@@H](CCN1CCC2(CC1)C[S+]([O-])c1ccccc12)c1ccc(Cl)c(Cl)c1)S(=O)(=O)c1cccc2cccnc12` (stereo partly drawn) yielded a pIC50 [1] of 7.05.

For `CN(C[C@@H](CCN1CCC2(CC1)CSc1ccccc12)c1ccc(Cl)c(Cl)c1)S(=O)(=O)c1ccccc1`, the pIC50 [1] was 6.00.

In the case of `CN(C[C@@H](CCN1CCC2(CC1)C[S+]([O-])c1ccccc12)c1ccc(Cl)c(Cl)c1)S(=O)(=O)c1ccsc1` (stereo partly drawn), the inhibition [2] was 20% and the pIC50 [3] was under 5.40.

`CN(C[C@@H](CCN1CCC2(CC1)CS(=O)(=O)c1ccccc12)c1ccc(Cl)c(Cl)c1)S(=O)(=O)c1cccc([N+](=O)[O-])c1` gave a pIC50 [1] of 6.82.

`CN(C[C@@H](CCN1CCC2(CC1)C[S+]([O-])c1ccccc12)c1ccc(Cl)c(Cl)c1)C(=O)Nc1ccccc1` (stereo partly drawn) showed an inhibition [4] of 69%.

`CN(C[C@@H](CCN1CCC2(CC1)C[S+]([O-])c1ccccc12)c1ccc(Cl)c(Cl)c1)S(=O)(=O)c1ccc2[nH]ccc2c1` (stereo partly drawn) was tested, and the pIC50 [1] was 7.15.

For `O=S(=O)(NC[C@@H](CCN1CCC2(CC1)CSc1ccccc12)c1ccc(Cl)c(Cl)c1)c1ccccc1`, the pIC50 [1] was 5.80.

`CN(C[C@@H](CCN1CCC2(CC1)C[S+]([O-])c1ccccc12)c1ccc(Cl)c(Cl)c1)S(=O)(=O)C1CCCCC1` (stereo partly drawn) gave a pIC50 [1] of 7.00.

For `CN(C[C@@H](CCN1CCC2(CC1)C[S+]([O-])c1ccccc12)c1ccc(Cl)c(Cl)c1)S(=O)(=O)c1ccccc1` (stereo partly drawn), the pIC50 [1] was 7.46.

With `CCN(C[C@@H](CCN1CCC2(CC1)C[S+]([O-])c1ccccc12)c1ccc(Cl)c(Cl)c1)S(=O)(=O)c1ccccc1` (stereo partly drawn) the pIC50 [1] was 6.89.

Compound `CCN(C[C@@H](CCN1CCC2(CC1)CS(=O)(=O)c1ccccc12)c1ccc(Cl)c(Cl)c1)S(=O)(=O)c1ccccc1` has a pIC50 [1] of 6.80.

`CN(C[C@@H](CCN1CCC2(CC1)C[S+]([O-])c1ccccc12)c1ccc(Cl)c(Cl)c1)S(=O)(=O)Cc1ccccc1` (stereo partly drawn) showed a pIC50 [1] of 6.23.

In the case of `CCN(C[C@@H](CCN1CCC2(CC1)CSc1ccccc12)c1ccc(Cl)c(Cl)c1)S(=O)(=O)c1ccccc1`, the pIC50 [1] was 5.00.

`CN(C[C@@H](CCN1CCC2(CC1)C[S+]([O-])c1ccccc12)c1ccc(Cl)c(Cl)c1)S(=O)(=O)c1ccc2ccccc2c1` (stereo partly drawn) gave a pIC50 [1] of 7.22.

Work on `CN(C[C@@H](CCN1CCC2(CC1)C[S+]([O-])c1ccccc12)c1ccc(Cl)c(Cl)c1)S(=O)(=O)c1cccc(Cl)c1` (stereo partly drawn) yielded a pIC50 [1] of 7.15.

Compound `CN(C[C@@H](CCN1CCC2(CC1)C[S+]([O-])c1ccccc12)c1ccc(Cl)c(Cl)c1)S(=O)(=O)c1cccc2ccccc12` (stereo partly drawn) has a pIC50 [1] of 6.44.

For `CN(C[C@@H](CCN1CCC2(CC1)C[S+]([O-])c1ccccc12)c1ccc(Cl)c(Cl)c1)S(=O)(=O)c1cn(C)cn1` (stereo partly drawn), the pIC50 [1] was 6.47.

Compound `CN(C[C@@H](CCN1CCC2(CC1)C[S+]([O-])c1ccccc12)c1ccc(Cl)c(Cl)c1)S(=O)(=O)c1ccc(Cl)cc1` (stereo partly drawn) has a pIC50 [1] of 7.40.

`CN(C[C@@H](CCN1CCC2(CC1)CS(=O)(=O)c1ccccc12)c1ccc(Cl)c(Cl)c1)S(=O)(=O)c1ccccc1` showed a pIC50 [1] of 7.00.

`CN(C[C@@H](CCN1CCC2(CC1)C[S+]([O-])c1ccccc12)c1ccc(Cl)c(Cl)c1)C(=O)N(C)c1ccccc1` (stereo partly drawn) was tested, and the inhibition [4] was 73%.

Compound `CNC[C@@H](CCN1CCC2(CC1)C[S+]([O-])c1ccccc12)c1ccc(Cl)c(Cl)c1` (stereo partly drawn) has an inhibition [2] of 0%.

Work on `CN(C[C@@H](CCN1CCC2(CC1)C[S+]([O-])c1ccccc12)c1ccc(Cl)c(Cl)c1)S(=O)(=O)c1cccnc1` (stereo partly drawn) yielded a pIC50 [1] of 7.00.

With `CN(C[C@@H](CCN1CCC2(CC1)C[S+]([O-])c1ccccc12)c1ccc(Cl)c(Cl)c1)C(=O)OC(C)(C)C` (stereo partly drawn) the inhibition [5] was 35%.

`CN(C[C@@H](CCN1CCC2(CC1)C[S+]([O-])c1ccccc12)c1ccc(Cl)c(Cl)c1)S(C)(=O)=O` (stereo partly drawn) was tested, and the pIC50 [1] was 6.07.

For `CN(C)S(=O)(=O)N(C)C[C@@H](CCN1CCC2(CC1)C[S+]([O-])c1ccccc12)c1ccc(Cl)c(Cl)c1` (stereo partly drawn), the pIC50 [1] was 6.47.

Compound `O=S(=O)(NC[C@@H](CCN1CCC2(CC1)C[S+]([O-])c1ccccc12)c1ccc(Cl)c(Cl)c1)c1ccccc1` (stereo partly drawn) has a pIC50 [1] of 6.64.

Compound `CN(C[C@@H](CCN1CCC2(CC1)C[S+]([O-])c1ccccc12)c1ccc(Cl)c(Cl)c1)S(=O)(=O)c1ccccc1Cl` (stereo partly drawn) has a pIC50 [1] of 7.10.

Compound `CN(C[C@@H](CCN1CCC2(CC1)C[S+]([O-])c1ccccc12)c1ccc(Cl)c(Cl)c1)S(=O)(=O)c1cccs1` (stereo partly drawn) has a pIC50 [1] of 7.22.

In the case of `CN(C[C@@H](CCN1CCC2(CC1)CSc1ccccc12)c1ccc(Cl)c(Cl)c1)C(=O)c1ccccc1`, the inhibition [2] was 0%.

Compound `CN(Cc1ccccc1)C[C@@H](CCN1CCC2(CC1)CS(=O)(=O)c1ccccc12)c1ccc(Cl)c(Cl)c1` has a pIC50 [1] of 6.00.

`CN(C[C@@H](CCN1CCC2(CC1)CS(=O)(=O)c1ccccc12)c1ccc(Cl)c(Cl)c1)S(=O)(=O)c1cccs1` was tested, and the pIC50 [1] was 6.92.

With `CN(Cc1ccccc1)C[C@@H](CCN1CCC2(CC1)C[S+]([O-])c1ccccc12)c1ccc(Cl)c(Cl)c1` (stereo partly drawn) the inhibition [5] was 40%.

Compound `CN(C[C@@H](CCN1CCC2(CC1)C[S+]([O-])c1ccccc12)c1ccc(Cl)c(Cl)c1)C(=O)Cc1ccccc1` (stereo partly drawn) has a pIC50 [1] of 6.19.

For `CN(C[C@@H](CCN1CCC2(CC1)C[S+]([O-])c1ccccc12)c1ccc(Cl)c(Cl)c1)C(=O)c1ccccc1` (stereo partly drawn), the inhibition [2] was 22%.

`CCCCCCCCS(=O)(=O)N(C)C[C@@H](CCN1CCC2(CC1)C[S+]([O-])c1ccccc12)c1ccc(Cl)c(Cl)c1` (stereo partly drawn) gave a pIC50 [1] of 5.85.

`CN(C[C@@H](CCN1CCC2(CC1)CS(=O)(=O)c1ccccc12)c1ccc(Cl)c(Cl)c1)C(=O)c1ccccc1` was tested, and the inhibition [2] was 2%.

`CN(C[C@@H](CCN1CCC2(CC1)C[S+]([O-])c1ccccc12)c1ccc(Cl)c(Cl)c1)S(=O)(=O)c1cnc2ccccc2c1` (stereo partly drawn) gave a pIC50 [1] of 6.92.

Work on `COc1ccc(S(=O)(=O)N(C)C[C@@H](CCN2CCC3(CC2)C[S+]([O-])c2ccccc23)c2ccc(Cl)c(Cl)c2)cc1` (stereo partly drawn) yielded a pIC50 [1] of 7.40.

For `CN(C[C@@H](CCN1CCC2(CC1)C[S+]([O-])c1ccccc12)c1ccc(Cl)c(Cl)c1)S(=O)(=O)c1ccc(-c2ccccc2)cc1` (stereo partly drawn), the pIC50 [1] was 7.40.

`CN(C[C@@H](CCN1CCC2(CC1)C[S+]([O-])c1ccccc12)c1ccc(Cl)c(Cl)c1)S(=O)(=O)C1CCCC1` (stereo partly drawn) gave a pIC50 [1] of 7.00.

Compound `CN(C[C@@H](CCN1CCC2(CC1)C[S+]([O-])c1ccccc12)c1ccc(Cl)c(Cl)c1)C(=O)Oc1ccccc1` (stereo partly drawn) has a pIC50 [1] of 6.11.
